# Test results: US20020045780A1, “Biologically active spermidine analogues, pharmaceutical compositions and methods of treatment” (priority 1997, published 2002)
# Read-outs that look alike come from different tables or passages of the source.
# Columns and labels:
# [1] = system: L1210 cells; conditions: 48 hours, cited from earlier work; for Analogue, corresponding tetraamine (in parentheses): intracellular amount
# [2] = system: L1210 cells; conditions: cited from earlier work
# [3] = system: S-adenosylmethionine decarboxylase (AdoMetDC); conditions: L1210, 1 μM at 6 hours; cited from earlier work
# [4] = system: L1210 cells; test: Metabolic transformation of polyamine analogues by L1210 cells; format: in vitro ADME, murine; conditions: L1210 cells, data not shown, concentration not given
# Method: The cells were washed twice with cold RPMI-1640, and the pellet was treated with 0.6 N HClO4 (1 ml/10^7 cells). Polyamine contents of the perchloric acid extracts were quantitated by HPLC of the DANSYL derivatives [Bergeron et al, J. Med. Chem., Vol. 37, supra].
# [5] = system: spermidine/spermine acetyltransferase (SSAT); conditions: L1210, 2 μM at 48 hours (tetraamine analogues); cited from earlier work
# [6] = molecular target: polyamine transport apparatus; conditions: inhibition of spermidine transport, L1210; read-out: Ki, corresponding tetraamine (in parentheses); cited from earlier work
# [7] = L1210, 48 hour exposure, read-out: IC50 48 hour, corresponding tetraamine (in parentheses)
# [8] = L1210, 96 hour exposure, read-out: IC50 96 hour, corresponding tetraamine (in parentheses)
SMILES,"Analogue, corresponding tetraamine (in parentheses) ([1]; 100 μM)","Analogue, corresponding tetraamine (in parentheses) ([1]; 500 μM)","IC50 [2, 7] [nM]","IC50 [2, 8] [nM]","AdoMetDC activity, corresponding tetraamine (in parentheses) [3]",N-dealkylation (result in words) [4],"SSAT activity, corresponding tetraamine (in parentheses) [5]",Ki [6] [µM],"Put, corresponding tetraamine (in parentheses) ([1]; % of untreated control, 500 μM)","Spd, corresponding tetraamine (in parentheses) ([1]; % of untreated control, 500 μM)","Spm, corresponding tetraamine (in parentheses) ([1]; % of untreated control, 500 μM)"
CNCCCNCCCCNCCCNC [DMSPM],(1.26) nmol/10^6 cells,(1.24) nmol/10^6 cells,> 100000,750,40% of untreated control,no evidence of N-dealkylation,300% of untreated control,1.1,–,–,–
CCNCCCNCCCNCCCN [MENSPM],–,–,> 100000,2500,33% of untreated control,–,410% of untreated control,7.7,–,–,–
CNCCCNCCCNCCCNC [DMNSPM],(2.14) nmol/10^6 cells,(1.84) nmol/10^6 cells,> 100000,2500,49% of untreated control,no evidence of N-dealkylation,200% of untreated control,5.6,(0) %,(3) %,(27) %
